According to patent US12479816B2, “20-HETE formation inhibitors” (UNIVERSITY OF PITTSBURGH—OF THE COMMONWEALTH SYSTEM OF …, priority 2019, dated 2025):
Read-outs that look alike come from different tables or passages of the source.

Legend:
[1] = test system: 20-HETE formation (CYP4) in HLM; assay: Inhibition of 20-HETE formation at 250 or 500 nM in HLM microsomal incubations; format: biochemical, human; details: 500 nM compound; HLM 300 μg/ml, AA 100 μM, 20 min
Method in brief: (§1)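 Protein 300 μg/ml (microsomes) / 25 pmol/mL (rCYP4F2); AA 100 μM; NADPH 1 mM start; KPi 0.12 M + 5 mM MgCl2; 20 min, 37° C. Read-out: 20-HETE by UPLC-MS/MS (d6 IS), % of vehicle, n=3.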

[2] = test system: 20-HETE formation (CYP4) in HLM; assay: IC50 determination, 20-HETE formation in HLM; format: biochemical, human; details: HLM 300 μg/ml, AA 100 μM, 12 concentrations
Description: Microsomal incubations contained HLM, RLM (300 μg/ml), AA (100 μM), NADPH (1 mM) and test compounds at 12 concentrations (0.1 nM-50 μM) in a 1 ml total volume in microsomal incubation buffer (0.12 M potassium phosphate buffer containing 5 mM magnesium chloride). Reaction was started by adding NADPH to the incubates and was carried out at 37° C. in a shaking water bath for 20 min. Reaction was stopped by placing tubes on ice, followed by adding 12.5 μl 20-HETE-d6 as internal standard to each sample. Microsomal incubations were extracted with 3 ml ethyl ether twice, dried down under nitrogen gas and reconstituted in 125 μl 80:20 methanol:deionized H2O for analysis. 20-HETE formation was quantified using the validated UPLC-MS/MS assay described above and normalized by vehicle group. HET0016 (250 nM) was used as positive control. Incubates without NADPH group served as the negative control. IC50 was determined by fitting the dose-response curve using Graphpad Prism nonlinear regression.

[3] = target: T1, rCYP4F2 (Homo sapiens, UniProt P78329); assay: Inhibition of 20-HETE formation at 250 or 500 nM in rCYP4F2 incubations; format: biochemical; details: 500 nM compound; rCYP4F2 25 pmol/mL; read-out: rCYP4F2 % inh. @ 500 nM
T1 sequence (P78329 5-520): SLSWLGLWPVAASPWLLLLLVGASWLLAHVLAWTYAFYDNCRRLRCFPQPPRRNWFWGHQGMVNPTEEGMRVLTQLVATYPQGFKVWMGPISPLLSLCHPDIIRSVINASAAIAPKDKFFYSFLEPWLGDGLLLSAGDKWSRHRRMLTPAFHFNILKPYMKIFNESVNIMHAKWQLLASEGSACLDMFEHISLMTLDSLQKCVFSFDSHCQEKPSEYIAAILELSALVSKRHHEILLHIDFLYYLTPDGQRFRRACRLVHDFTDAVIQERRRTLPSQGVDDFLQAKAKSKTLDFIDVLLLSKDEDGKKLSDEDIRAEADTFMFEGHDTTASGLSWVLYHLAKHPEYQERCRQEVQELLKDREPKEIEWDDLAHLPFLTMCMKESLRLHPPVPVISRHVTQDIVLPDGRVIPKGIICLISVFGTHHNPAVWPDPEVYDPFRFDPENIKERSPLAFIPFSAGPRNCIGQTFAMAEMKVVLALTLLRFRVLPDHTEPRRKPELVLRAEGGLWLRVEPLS
Method in brief: as §1

[4] = HLM stability determination; format: in vitro ADME, human; details: HLM 500 μg/ml, 1 μM compound, NADPH, relative to 0 min
Description: HLM stability determinations shown in Table 3 were obtained as follows. Microsomal incubates contained HLM (500 μg/ml), test compounds (1 μM) and NADPH (1.3 mM) in a 1 ml total volume of microsomal incubation buffer (0.12 M potassium phosphate buffer containing 5 mM magnesium chloride). Reaction was started by adding NADPH to the incubates and was carried out at 37° C. in a shaking water bath for 60 min. At 0, 15, 30, 45, 60 min, a 50 μl aliquot of incubates was taken out and reaction was stopped by adding aliquot into 200 μl ice-cold acetonitrile. After centrifugation at 14000×g for 5 min, 200 μl supernatant was taken out for UPLC-MS/MS analysis as described above. Values at 0 min were used as corresponding control for test compounds. Varapamil, metoprolol, and warfarin, categorized as fast, moderate and slow metabolism, were used as positive control. Incubates without NADPH group served as negative control.

[5] = test system: 20-HETE formation (CYP4) in RLM; assay: Inhibition of 20-HETE formation at 250 or 500 nM in RLM microsomal incubations; format: biochemical, rat; details: 500 nM compound; RLM 300 μg/ml
Method in brief: as §1

[6] = Turbidometric solubility determination; format: physicochemical; details: PBS with 1% DMSO, aqueous buffer, kinetic from dmso stock, room temperature
Method in brief: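 Precipitation was detected as a significant rise in absorbance at 620 nm over background, and this point set the maximum solubility. Compound was tested in PBS with 1% DMSO at final concentrations from 0 to 600 μM, in triplicate, after 2 h of shaking at room temperature.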

[7] = test system: MDR1 (P-gp); assay: BBB penetration potential, MDR1-MDCK permeability; format: in vitro ADME; details: dog; for Papp A→B at 120 min, 5 μM: apical to basolateral, pH 7.4, read-out: BBB penetration potential MDCK A-B 10−6 cm/s; for Papp B→A at 120 min, 5 μM: basolateral to apical, pH 7.4, read-out: BBB penetration potential MDCK B-A 10−6 cm/s
Description: BBB penetration potential assessment data in Table 1 was obtained as follows. MDR1-MDCK cell monolayers were grown to confluence on collagen-coated, microporous membranes in 12-well assay plates. Atenolol, propranolol and digoxin were used as control to assess plate quality. The permeability assay buffer was Hanks' balanced salt solution containing 10 mM HEPES and 15 mM glucose at a pH of 7.4. The buffer in the receiver chamber also contained 1% bovine serum albumin. The dosing solution concentration was 5 μM of test article in the assay buffer. Cell monolayers were dosed on the apical side (A-to-B) or basolateral side (B-to-A) and incubated at 37° C. with 5% CO2 in a humidified incubator. Samples were taken from the donor and receiver chambers at 120 minutes. Each determination was performed in duplicate the flux of lucifer yellow was also measured post-experimentally for each monolayer to ensure no damage was inflicted to the cell monolayers during the flux period. All samples were assayed by LC-MS/MS using electrospray ionization using a PE SCIEX API 4000 spectrometer and total run time of 1 min. Analytical method/conditions were: Liquid Chromatography Column: Waters ACQUITY UPLC BEH Phenyl 30×2.1 mm, 1.7 m; M.P. Buffer: 25 mM ammonium formate buffer, pH 3.5; Aqueous Reservoir (A): 90% water, 10% buffer; Organic Reservoir (B): 90% acetonitrile, 10% buffer; Flow Rate: 0.7 mL/minute; gradient program: 99% A (t=0 min), 1% A (t=0.65 min), 1% A (t=0.75 min), 99% A (t=0.8 min), 99% A (t=1 min); 5 μL injection volume
The apparent permeability (Papp) and percent recovery were calculated as follows: Papp=(dCr/dt)×Vr/(A×CA) (1) Percent Recovery=100×((Vr×Cr^final)+(Vd×Cd^final))/(Vd×CN) (2)
wherein: • dCr/dt is the slope of the cumulative concentration in the receiver compartment versus time in μMs^−1; • Vr is the volume of the receiver compartment in cm^3; • Vd is the volume of the donor compartment in cm^3; • A is the area of the insert (1.13 cm^2 for 12-well); • CA is the average of the nominal dosing concentration and the measured 120 minute donor concentration in μM; • CN is the nominal concentration of the dosing solution in μM; • Cr^final is the cumulative receiver concentration in μM at the end of the incubation period; • Cd^final is the concentration of the donor in μM at the end of the incubation period. Efflux ratio (ER) is defined as Papp (B-to-A)/Papp (A-to-B) Interpretation Brain Penetration Potential Classification: • Papp (A-to-B)≥3.0 and ER<3.0: High • Papp (A-to-B)≥3.0 and 10>ER≥3.0: Moderate • Papp (A-to-B)≥3.0 and ER≥10, or Papp (A-to-B)<3.0 Low

SMILES | HLM % inh. @ 500 nM [1] [%] | IC50 [2] [µM] | inhibition at 0.5 µM [3] [%] | Stability HLM % @ 30 min [4] [%] | RLM % inh. @ 500 nM [5] [%] | solubility at 2 h ([6]; OD620, read-out: Max Solub) [µM] | solubility at 2 h ([6]; read-out: Solubility_ug/mL) [µg/mL] | Papp A→B at 120 min, 5 μM [7] [×10⁻⁶ cm/s] | Papp B→A at 120 min, 5 μM [7] [×10⁻⁶ cm/s]
c1ccc(OC2CCN(c3cn[nH]c3)CC2)cc1 [Compound 14, 4-Phenoxy-1-(1H-pyrazol-4-yl)piperidine] | 53.00 | 0.22 | 60 | 97 | 0.00 | – | – | – | –
Cc1ccc(C2CCN(c3ccn[nH]3)CC2)cc1 [Compound 23, 1-(1H-Pyrazol-5-yl)-4-(p-tolyl)piperidine] | 67.40 | 0.11 | 70.8 | 61 | 0.00 | 166 | 40.1 | – | –
Cc1ccc(C2CCN(c3cn[nH]c3)CC2)cc1 [Compound 24, 1-(1H-Pyrazol-4-yl)-4-(p-tolyl)piperidine] | 73.80 | 0.08 | 79.9 | 92 | 16.30 | 85.4 | 20.6 | – | –
COCc1ccc(C2CCN(c3ccn[nH]3)CC2)cc1 [Compound 25, 4-(4-(Methoxymethyl)phenyl)-1-(1H-pyrazol-5-yl)piperidine] | 56.40 | 0.28 | 67.8 | 100 | 21.30 | 235 | 63.9 | – | –
COc1cncc(C2CCN(c3ccn[nH]3)CC2)c1 [Compound 60, 3-(1-(1H-Pyrazol-5-yl)piperidin-4-yl)-5-methoxypyridine] | 3.70 | – | 38.4 | 100 | 0.00 | – | – | – | –
COc1ccc(C2CCN(c3cn[nH]c3)CC2)cc1Cl [Compound 64, 4-(3-Chloro-4-methoxyphenyl)-1-(1H-pyrazol-4-yl)piperidine] | 88 | – | 72 | – | 49.00 | 19.5 | – | 46.4 | 34.8
CC(=O)N(C)c1ccc(C2CCN(c3cn[nH]c3)CC2)c(F)c1 [Compound 69, N-(4-(1-(1H-Pyrazol-4-yl)piperidin-4-yl)-3-fluorophenyl)-N-methylacetamide] | 85.6 | – | 57.9 | – | 27.70 | 304 | – | 22.3 | 44.4
O=C1CCCN1c1ccc(C2CCN(c3ccn[nH]3)CC2)cc1 [Compound 101, 1-(4-(1-(1H-Pyrazol-5-yl)piperidin-4-yl)phenyl)pyrrolidin-2-one] | 79.00 | – | 80 | – | 48.70 | 158 | – | 33.8 | 46.7
CC(Nc1ccc(C2CCN(c3cn[nH]c3)CC2)cc1)C(F)(F)F (stereo not drawn) [Compound 104, 4-(1-(1H-Pyrazol-4-yl)piperidin-4-yl)-N-(1,1,1-trifluoropropan-2-yl)aniline] | 86.1 | – | 78 | – | 36.00 | 31 | – | 50.4 | 48.9
O=C1CCCN1Cc1ccc(C2CCN(c3cn[nH]c3)CC2)cc1F [Compound 109, 1-(4-(1-(1H-Pyrazol-4-yl)piperidin-4-yl)-2-fluorobenzyl)pyrrolidin-2-one] | 90.30 | – | 86 | – | 62.70 | > 600 | – | 10.8 | 77.5
Cc1ccc(CC2CCN(c3cn[nH]c3)CC2)cc1 [Compound 116, 4-(4-Methylbenzyl)-1-(1H-pyrazol-4-yl)piperidine] | 86.40 | – | 89.3 | – | 59.60 | 71 | – | 77.4 | 70.3
